Test results reported in patent publication US9920088B2, “Triterpene derivative and its anti-influenza use” (Peking University, priority 2012, dated 2018).
Read-outs that look alike come from different tables or passages of the source.

Legend:
[1] = tested on: A/LiaoNing-ZhenXing/1109/2010(H1N1); experiment: CPE reduction assay, LN/1109 (H1N1); type: cell-based; settings: Influenza A virus
[2] = tested on: A/HuNan-ZhuHui/1222/2010 (H3N2); experiment: CPE reduction assay, HN/1222 (H3N2); type: cell-based; settings: Influenza A virus

## NC12CC3CC(CC(C3)C1)C2 [Amantadine, amantadine, reference compound]
[1]; read-out: EC50
  EC50: 0.44 ± 0.14 µM
[2]; read-out: EC50
  EC50: > 200 µM

## CC1(C)CC[C@]2(C(=O)O[C@H]3OC(CO)[C@@H](O)C(O)C3O)C(O)C[C@]3(C)C(=CC[C@@H]4[C@@]5(C)CC[C@H](O)C(C)(C)[C@@H]5CC[C@]43C)[C@@H]2C1 (stereo partly drawn) [Compound Q9, 3β,16α-dihydroxy-olean-12-en-28-oic acid-28-O-(β-D-galactoside)]
[1]; read-out: EC50
  EC50: 17.8 ± 12.6 µM
[2]; read-out: EC50
  EC50: 25.6 ± 9.14 µM

## NC(=O)c1ncn([C@@H]2O[C@H](CO)[C@@H](O)[C@H]2O)n1 [RBV, ribavirin, reference compound]
[1]
  EC50: 5.75 ± 0.35 µM
[2]
  EC50: 3.56 ± 0.24 µM

## CCOC(=O)C1=C[C@@H](OC(CC)CC)[C@H](NC(C)=O)[C@@H](N)C1 [OSV-P, oseltamivir phosphate, reference compound]
[1]; read-out: EC50
  EC50: > 200 µM
[2]; read-out: EC50
  EC50: 8.75 ± 4.41 µM

## CC(=O)OCC1O[C@H](NC(=O)[C@]23CCC(C)(C)CC2C2=CCC4[C@@]5(C)CC[C@H](O)C(C)(C)C5CC[C@@]4(C)[C@]2(C)CC3)C(OC(C)=O)C(OC(C)=O)[C@@H]1OC(C)=O (stereo partly drawn) [Compound Y5, 3β-hydroxy-olean-12-en-28-oic acid-28-N-(2,3,4,6-tetra-O-acetyl-β-D-galactoside)]
[1]; read-out: EC50
  EC50: 6.58 ± 1.17 µM
[2]; read-out: EC50
  EC50: 3.18 ± 0.08 µM

## CC1(C)CC[C@@]2(C(=O)N[C@H]3OC(CO)[C@@H](O)C(O)C3O)C(C1)C1=CCC3[C@@]4(C)CC[C@H](O)C(C)(C)C4CC[C@@]3(C)[C@]1(C)C[C@H]2O (stereo partly drawn) [Compound Y2, 3β,16α-dihydroxy-olean-12-en-28-oic acid-28-N-(β-D-galactoside)]
[1]; read-out: EC50
  EC50: > 22.2 µM
[2]; read-out: EC50
  EC50: > 22.2 µM
